The target of assay [1] is T1, 5-hydroxytryptamine receptor 2B (Homo sapiens, UniProt P41595). The assay can be described thus: Agonist activity at human 5HT2B receptor expressed in HEK293 cells assessed as calcium flux by FLIPR assay. In kind it is functional, cell-based. For orientation: Calcium flux is commonly read through the fluorescence of an indicator in the cells.
The target of assay [2] is T2, 5-hydroxytryptamine receptor 2A (Homo sapiens, UniProt P28223). The assay is described as follows: Agonist activity at human 5HT2A receptor expressed in HEK293 cells assessed as calcium flux by FLIPR assay. The assay is classed as functional, cell-based.
T2 sequence (P28223 whole entry): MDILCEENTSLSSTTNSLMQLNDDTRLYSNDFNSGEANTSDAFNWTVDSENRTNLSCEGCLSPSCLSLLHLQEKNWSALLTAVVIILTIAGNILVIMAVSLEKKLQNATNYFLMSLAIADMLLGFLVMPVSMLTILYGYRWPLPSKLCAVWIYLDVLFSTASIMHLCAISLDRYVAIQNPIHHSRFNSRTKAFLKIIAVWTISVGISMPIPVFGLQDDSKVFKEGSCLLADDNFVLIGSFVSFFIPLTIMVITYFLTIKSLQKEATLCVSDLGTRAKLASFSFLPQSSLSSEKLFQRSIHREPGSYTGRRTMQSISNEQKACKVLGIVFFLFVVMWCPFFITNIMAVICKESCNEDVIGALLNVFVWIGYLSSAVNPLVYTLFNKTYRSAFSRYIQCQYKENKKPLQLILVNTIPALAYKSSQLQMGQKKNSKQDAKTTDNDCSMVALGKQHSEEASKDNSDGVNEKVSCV
In assay [3] the target is T3, 5-hydroxytryptamine receptor 2C (Homo sapiens) (UniProt P28335).
T3 sequence (whole entry): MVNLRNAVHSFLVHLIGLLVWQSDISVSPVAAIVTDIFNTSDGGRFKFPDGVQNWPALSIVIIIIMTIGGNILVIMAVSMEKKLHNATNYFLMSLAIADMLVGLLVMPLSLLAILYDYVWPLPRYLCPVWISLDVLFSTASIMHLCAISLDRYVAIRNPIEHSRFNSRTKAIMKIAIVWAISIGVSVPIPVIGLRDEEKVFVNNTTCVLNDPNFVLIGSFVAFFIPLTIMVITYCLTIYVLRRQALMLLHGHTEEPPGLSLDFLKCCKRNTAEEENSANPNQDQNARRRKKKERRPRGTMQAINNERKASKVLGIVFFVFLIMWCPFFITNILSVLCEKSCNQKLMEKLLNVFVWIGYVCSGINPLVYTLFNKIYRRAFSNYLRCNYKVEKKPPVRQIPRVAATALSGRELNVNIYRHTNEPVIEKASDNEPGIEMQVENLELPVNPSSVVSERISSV
The assay can be described thus: Agonist activity at human 5HT2C receptor expressed in HEK293 cells at 10 uM assessed as calcium flux by FLIPR assay relative to serotonin. The assay is classed as functional, cell-based.

Another assay is filed under the species Homo sapiens. The assay can be described thus: Selectivity ratio of EC50 for human 5HT2B receptor to EC50 for human 5HT2C receptor.
Assay [4] has as its target T2, 5-hydroxytryptamine receptor 2A. The assay can be described thus: Agonist activity at human 5HT2A receptor expressed in HEK293 cells at 10 uM assessed as calcium flux by FLIPR assay relative to serotonin. The assay is classed as functional, cell-based.
Assay [5] concerns the target T1, 5-hydroxytryptamine receptor 2B. The assay is described as follows: Agonist activity at human 5HT2B receptor expressed in HEK293 cells at 10 uM assessed as calcium flux by FLIPR assay relative to serotonin. The assay is classed as functional, cell-based.
Assay [6] concerns the target T4, 5-hydroxytryptamine receptor 2C (Homo sapiens, UniProt P28335).
T4 sequence (P28335 whole entry): T3 sequence (whole entry)
The assay is described as follows: Agonist activity at human 5HT2C receptor expressed in HEK293 cells assessed as calcium flux by FLIPR assay. The assay is classed as functional, cell-based.

Assay [7] deals with Serotonin 2 receptors; 5-HT2a & 5-HT2c (Homo sapiens) (UniProt P28223+P28335). The assay is described as follows: Selectivity ratio of EC50 for human 5HT2A receptor to EC50 for human 5HT2C receptor.
Sequence of Serotonin 2 receptors; 5-HT2a & 5-HT2c (Homo sapiens) (P28223 whole entry, looked up, one chain of several): as the sequence (P28223 whole entry) above

Molecules are shown by their SMILES. Activity calls are given as the source filed them. The rule behind the calls is not given here. Some results are limits rather than exact numbers.

T1 sequence (P41595 whole entry): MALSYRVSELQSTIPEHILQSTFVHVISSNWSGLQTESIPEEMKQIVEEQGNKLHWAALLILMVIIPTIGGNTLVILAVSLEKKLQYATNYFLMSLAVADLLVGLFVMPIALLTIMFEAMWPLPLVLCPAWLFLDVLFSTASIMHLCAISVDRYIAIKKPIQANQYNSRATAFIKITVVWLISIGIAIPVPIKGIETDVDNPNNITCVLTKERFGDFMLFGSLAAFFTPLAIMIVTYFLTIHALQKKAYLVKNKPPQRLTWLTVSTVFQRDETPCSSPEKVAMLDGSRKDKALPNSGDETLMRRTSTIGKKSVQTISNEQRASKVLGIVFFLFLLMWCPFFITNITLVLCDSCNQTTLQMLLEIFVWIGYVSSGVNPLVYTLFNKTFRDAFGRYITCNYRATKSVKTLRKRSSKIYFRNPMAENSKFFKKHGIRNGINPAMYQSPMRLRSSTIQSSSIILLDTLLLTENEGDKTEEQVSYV

Consider `C#Cc1cccc([C@H]2C[C@@H]2CN)c1` (relative stereo), for which the EC50 in assay [1] is 185 nM; in assay [2], over 10000 nM; in assay [6] it was 136 nM. The Emax in assay [3] is 91%; in assay [4], 42%; in assay [5], 84%. In addition, the Ratio EC50 in the assay filed under Homo sapiens was determined as 1.4.
As for `NC[C@@H]1C[C@H]1c1ccccc1Br` [listing 1 of 2 here], the EC50 in assay [1] stood at 224 nM; in assay [6] it was 78 nM.
On to `NC[C@H]1C[C@@H]1c1ccccc1C#CCCCCO` (relative stereo), for which the results for the EC50 in assay [1] and in assay [6] were 204 nM and 232 nM, respectively. The result in assay [2] was inactive. In addition, the Emax in assay [3] is 88%; in assay [4] it was under 12%; in assay [5] it was 84%. Moreover, the Ratio EC50 is 0.88 in the assay filed under Homo sapiens and over 43 in assay [7].
Turning to `c1cc2c3c(c1)c1c(n3CCNC2)CCCC1`, the result in assay [1] and in assay [2] was inactive. Moreover, the Emax in assay [4] and in assay [5] was under 12% throughout. Also, in assay [6], the EC50 was found to be 261 nM.
Regarding `NC[C@@H]1C[C@H]1c1ccccc1Br` [listing 2 of 2 here], the result in assay [2] was inactive. For the same compound, the Emax in assay [3] is 113%; in assay [4] it was under 12%; in assay [5] it was 96%. The Ratio EC50 was 2.9 in the assay filed under Homo sapiens and over 128 in assay [7].
`NC[C@H]1C[C@@H]1c1ccccc1-c1ccc(F)cc1` (relative stereo): the EC50 in assay [1] was over 1000 nM; in assay [6], 301 nM. The result in assay [2] was inactive. For the same compound, the Emax was 74% in assay [3], under 12% in assay [4] and 43% in assay [5]. Besides, the Ratio EC50 in the assay filed under Homo sapiens is over 3.
Turning to `NC[C@H]1C[C@@H]1c1cccc(-c2ccc(F)cc2)c1` (relative stereo), the outcome in assay [1] and in assay [2] was inactive. Further, the Emax in assay [3] is 79%; in assay [4], under 12%; in assay [5] it was under 12%. Further, the EC50 in assay [6] was 695 nM.
In the case of `NC[C@@H]1C[C@H]1c1ccccc1`, the EC50 is 3090 nM in assay [1] and 909 nM in assay [6].
As to `NC[C@H]1C[C@@H]1c1cccc(NCc2ccccc2)c1` (relative stereo), the outcome in assay [1] and in assay [2] was inactive. In addition, the Emax in assay [3] was 77%; in assay [4], under 12%; in assay [5], under 12%. For the same compound, the EC50 in assay [6] is 1180 nM.
Regarding `N#Cc1ccc(-c2cccc([C@H]3C[C@@H]3CN)c2)cc1` (relative stereo), the outcome in assay [1] and in assay [2] was inactive. Moreover, the Emax is 41% in assay [3], under 12% in assay [4] and under 12% in assay [5]. In addition, the EC50 in assay [6] is over 1000 nM.
Regarding `CC(=O)Nc1ccccc1[C@H]1C[C@@H]1CN` (relative stereo), the result in assay [1] and in assay [2] was inactive. The Emax in assay [3] is 30%; in assay [4] it was under 12%; in assay [5], under 12%. Also, in assay [6], the EC50 is over 1000 nM.
Consider `NC[C@H]1C[C@@H]1c1cccc(NC(=O)c2ccccc2)c1` (relative stereo), for which the result in assay [1] and in assay [2] was inactive. The Emax in assay [3] is 26%; in assay [4], under 12%; in assay [5], under 12%. Besides, the EC50 in assay [6] is over 1000 nM.
Take `NC[C@H]1C[C@@H]1c1cccc(-c2ccc(Cl)cc2)c1` (relative stereo): the outcome in assay [1] and in assay [2] was inactive. In addition, the Emax in assay [3] is 87%; in assay [4], under 12%; in assay [5], under 12%. Moreover, the EC50 in assay [6] is 1580 nM.
As for `NC[C@H]1C[C@@H]1c1ccccc1-c1cc2ccccc2o1` (relative stereo), the EC50 in assay [1] is over 1000 nM; in assay [6], 1960 nM. Further, the outcome in assay [2] was inactive. Further, the Emax in assay [3] was 66%; in assay [4], under 12%; in assay [5], 10%. For the same compound, the Ratio EC50 in the assay listed under Homo sapiens is over 1.
Regarding `NC[C@H]1C[C@@H]1c1ccc(C#CCCCCO)cc1` (relative stereo), the result in assay [1] and in assay [2] was inactive. Besides, the figures for the Emax in assay [3], in assay [4] and in assay [5] were 24%, under 12% and under 12%, respectively. The EC50 in assay [6] is over 10000 nM.
As to `NC[C@H]1C[C@@H]1c1ccccc1NC(=O)c1ccccc1` (relative stereo), the outcome in assay [1] and in assay [2] was inactive. The results for the Emax in assay [3], in assay [4] and in assay [5] were 39%, under 12% and under 12%, respectively. Besides, the EC50 in assay [6] was over 1000 nM.
As to `NC[C@H]1C[C@@H]1c1ccc(-c2ccco2)cc1` (relative stereo), the result in assay [1] and in assay [2] was inactive. Moreover, the Emax was 75% in assay [3], under 12% in assay [4] and under 12% in assay [5]. The EC50 in assay [6] turned out to be 1200 nM.
Regarding `c1ccc(CNC[C@H]2C[C@@H]2c2ccccc2)cc1` (racemic), the outcome in assay [1] and in assay [2] was inactive. For the same compound, the Emax in assay [3] is 97%; in assay [4] it was under 12%; in assay [5], 10%.
In the case of `NC[C@H]1C[C@@H]1c1ccccc1`, the EC50 in assay [1] turned out to be 37 nM; in assay [2], 1400 nM; in assay [6] it was 5.2 nM. For the same compound, the Emax in assay [3] came to 108%; in assay [4], 79%; in assay [5] it was 111%. Moreover, the Ratio EC50 in the assay filed under Homo sapiens amounted to 7.2; in assay [7], 268.
As to `NC[C@H]1C[C@@H]1c1cccc(-c2ccc(C(F)(F)F)cc2)c1` (relative stereo), the result in assay [1] and in assay [2] was inactive. In addition, the Emax in assay [3] was 61%; in assay [4], under 12%; in assay [5] it was under 12%. Besides, the EC50 in assay [6] was over 1000 nM.
With `N[C@@H]1C[C@H]1c1ccccc1.N[C@H]1C[C@@H]1c1ccccc1` (racemic) [TRANYLCYPROMINE], the EC50 in assay [1] was over 5000 nM; in assay [6], 2700 nM. Further, in assay [2], the outcome was inactive. Besides, the Emax in assay [3] is 109%; in assay [4], under 12%; in assay [5] it was 29%.
On to `CC(C)(O)C#Cc1cccc([C@H]2C[C@@H]2CN)c1` (relative stereo), for which the outcome in assay [1] and in assay [2] was inactive. Besides, the results for the Emax in assay [3], in assay [4] and in assay [5] were 62%, under 12% and under 12%, respectively. Also, the EC50 in assay [6] is over 5000 nM.
Regarding `NC[C@H]1C[C@@H]1c1ccccc1NC(=O)Nc1ccc(Cl)cc1` (relative stereo), the result in assay [1] and in assay [2] was inactive. Also, the Emax was 38% in assay [3], under 12% in assay [4] and under 12% in assay [5]. For the same compound, the EC50 in assay [6] is over 1000 nM.
For the compound `NC[C@H]1C[C@@H]1c1cccc(-c2cc3ccccc3o2)c1` (relative stereo), the outcome in assay [1] and in assay [2] was inactive. In addition, the Emax in assay [3] was 39%; in assay [4], under 12%; in assay [5], under 12%. In assay [6], the EC50 is over 1000 nM.
Regarding `NC[C@H]1C[C@@H]1c1ccc(-c2ccc(F)cc2)cc1` (relative stereo), the EC50 in assay [1] and in assay [6] was over 1000 nM in each case. Also, in assay [2], the result was inactive. Moreover, the Emax in assay [3] is 45%; in assay [4] it was under 12%; in assay [5], 10%.
In the case of `CC(=O)Nc1cccc([C@H]2C[C@@H]2CN)c1` (relative stereo), the outcome in assay [1] and in assay [2] was inactive. For the same compound, the Emax in assay [3] is 39%; in assay [4] it was under 12%; in assay [5] it was under 12%. Moreover, in assay [6], the EC50 is over 1000 nM.
In the case of `NC[C@@H]1C[C@H]1c1ccccc1` (relative stereo), the figures for the EC50 in assay [1], in assay [2] and in assay [6] were 85 nM, 1400 nM and 13 nM, respectively.
Turning to `COc1ccc([C@H]2C[C@@H]2CN)cc1` (relative stereo), the result in assay [1] and in assay [2] was inactive. For the same compound, the Emax in assay [3] is 86%; in assay [4], under 12%; in assay [5], under 12%.

For orientation: EC50 means the concentration needed to bring the measured effect to its halfway point. As usually defined, the Emax is the size of the effect at its maximum, as opposed to the concentration needed.

The values above are taken from ChEMBL document CHEMBL1153382 (J Med Chem, 2009).
